From US7138361B2, “Herbicidal heterocycles” (E. I. du Pont de Nemours and Company, priority 2000, dated 2006)

Columns and labels:
Format in all cases: in vivo
Nightshade = assay: Test C preemergence; details: scale 0 to 100, 0 no effect, 100 complete control
Excerpt: (§1) Seeds of plant species selected from bermudagrass (Cynodon dactylon), Surinam grass (Brachiaria decumbens), cocklebur (Xanthium strumarium), corn (Zea mays), crabgrass (Digitaria sanguinalis), woolly cupgrass (Eriochloa villosa), giant foxtail (Setaria faberii), goosegrass (Eleusine indica), johnsongrass (Sorghum halepense), kochia (Kochia scoparia), lambsquarters (Chenopodium album), morningglory (Ipomoea hederacea), yellow nutsedge (Cyperus esculentus), pigweed (Amaranthus retroflexus), common ragweed (Ambrosia elatior), soybean (Glycine max) and velvetleaf (Abutilon theophrasti) were planted and treated preemergence with test chemicals formulated in a non-phytotoxic solvent mixture which included a surfactant.
(§2) At the same time, plants selected from these crop and weed species and also winter barley (Hordeum vulgare), blackgrass (Alopecurus myosuroides), canary grass (Phalaris minor), chickweed (Stellaria media), downy brome (Bromus tectorum), green foxtail (Setaria viridis), Italian ryegrass (Lolium multiflorum), wheat (Triticum aestivum), wild oat (Avena fatua) and windgrass (Apera spica-venti) were treated with postemergence applications of some of the test chemicals formulated in the same manner. Plants ranged in height from 2 to 18 cm (1- to 4-leaf stage) for postemergence treatments. Plant species in the flooded paddy test consisted of rice (Oryza saliva), smallflower flatsedge (Cyperus difformis), duck salad (Heteranthera limosa) and barnyardgrass (Echinochloa crus-galli) grown to the 2-leaf stage for testing. Treated plants and controls were maintained in a greenhouse for 12 to 14 days, after which time all species were compared to controls and visually evaluated. Plant response ratings, summarized in Table C, are based on a scale of 0 to 100 where 0 is no effect and 100 is complete control. A dash (-) response means no test result.

[1] = system: Surinam grass (Brachiaria decumbens); assay: Test C preemergence; details: for Plant response rating, Surinam grass: scale 0 to 100, 0 no effect, 100 complete control; for Plant response rating (0 to 100), Surinam grass: visual evaluation after 12 to 14 days
Excerpt: as §1, §2

[2] = system: bermudagrass (Cynodon dactylon); assay: Test C preemergence; details: for Plant response rating, Bermudagrass: scale 0 to 100, 0 no effect, 100 complete control; for Plant response rating (0 to 100 where 0 is no effect and 100 is complete control), Bermudagrass: visual evaluation after 12 to 14 days
Excerpt: as §1, §2

[3] = system: cocklebur (Xanthium strumarium); assay: Test C preemergence; details: for Plant response rating, Cocklebur: scale 0 to 100, 0 no effect, 100 complete control; for Plant response rating (0 to 100), Cocklebur: visual evaluation after 12 to 14 days
Excerpt: as §1, §2

[4] = system: common ragweed (Ambrosia elatior); assay: Test C preemergence; details: preemergence; for Plant response rating, Ragweed, Common: scale 0 to 100, 0 no effect, 100 complete control
Excerpt: as §1, §2

corn (Zea mays) = assay: Test C preemergence; details: for Plant response rating, Corn: scale 0 to 100, 0 no effect, 100 complete control; for Plant response rating (0 to 100), Corn: visual evaluation after 12 to 14 days
Excerpt: as §1, §2

[5] = system: crabgrass (Digitaria sanguinalis); assay: Test C preemergence; details: for Plant response rating, Crabgrass: scale 0 to 100, 0 no effect, 100 complete control; for Plant response rating (0 to 100), Crabgrass: visual evaluation after 12 to 14 days
Excerpt: as §1, §2

[6] = system: giant foxtail (Setaria faberii); assay: Test C preemergence; details: for Plant response rating, Foxtail, Giant: scale 0 to 100, 0 no effect, 100 complete control; for Plant response rating (0 to 100), Foxtail, Giant: visual evaluation after 12 to 14 days
Excerpt: as §1, §2

[7] = system: goosegrass (Eleusine indica); assay: Test C preemergence; details: for Plant response rating, Goosegrass: scale 0 to 100, 0 no effect, 100 complete control; for Plant response rating (0 to 100), Goosegrass: visual evaluation after 12 to 14 days
Excerpt: as §1, §2

[8] = system: johnsongrass (Sorghum halepense); assay: Test C preemergence; details: for Plant response rating, Johnsongrass: scale 0 to 100, 0 no effect, 100 complete control; for Plant response rating (0 to 100), Johnsongrass: visual evaluation after 12 to 14 days
Excerpt: as §1, §2

kochia (Kochia scoparia) = assay: Test C preemergence; details: for Plant response rating, Kochia: scale 0 to 100, 0 no effect, 100 complete control; for Plant response rating (0 to 100), Kochia: visual evaluation after 12 to 14 days
Excerpt: as §1, §2

[9] = system: morningglory (Ipomoea hederacea); assay: Test C preemergence; details: for Plant response rating, Morningglory: scale 0 to 100, 0 no effect, 100 complete control
Excerpt: as §1, §2

[10] = system: pigweed (Amaranthus retroflexus); assay: Test C preemergence; details: preemergence; for Plant response rating, Pigweed: scale 0 to 100, 0 no effect, 100 complete control
Excerpt: as §1, §2

soybean (Glycine max) = assay: Test C preemergence; details: preemergence; for Plant response rating, Soybean: scale 0 to 100, 0 no effect, 100 complete control
Excerpt: as §1, §2

[11] = system: velvetleaf (Abutilon theophrasti); assay: Test C preemergence; details: preemergence; for Plant response rating, Velvetleaf: scale 0 to 100, 0 no effect, 100 complete control
Excerpt: as §1, §2

[12] = system: woolly cupgrass (Eriochloa villosa); assay: Test C preemergence; details: for Plant response rating, Cupgrass, Woolly: scale 0 to 100, 0 no effect, 100 complete control; for Plant response rating (0 to 100), Cupgrass, Woolly: visual evaluation after 12 to 14 days
Excerpt: as §1, §2

[13] = system: yellow nutsedge (Cyperus esculentus); assay: Test C preemergence; details: for Plant response rating, Nutsedge: scale 0 to 100, 0 no effect, 100 complete control
Excerpt: as §1, §2

[14] = system: barnyardgrass (Echinochloa crus-galli); assay: Test C flooded paddy test; details: for Barnyardgrass plant response rating: Flooded Paddy, scale 0 to 100, 0 no effect, 100 complete control; for Plant response rating, Barnyardgrass: flooded paddy test, scale 0 to 100 (0 no effect, 100 complete control)
Procedure, shortened: (§3)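 Plants were grown to the 2-leaf stage under flooded paddy conditions and treated. They were then kept in a greenhouse for 12 to 14 days and visually rated against untreated controls on a 0–100 scale, where 0 is no effect and 100 is complete control.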

rice (Oryza saliva) = assay: Test C flooded paddy test; details: for Rice plant response rating: Flooded Paddy, scale 0 to 100, 0 no effect, 100 complete control; for Plant response rating, Rice: flooded paddy test, scale 0 to 100 (0 no effect, 100 complete control)
Procedure, shortened: as §3

Sunflower = assay: Test C preemergence; details: Rate 500 g/ha, visual evaluation after 12 to 14 days
[15] = Rate 500 g/ha, visual evaluation after 12 to 14 days
[16] = preemergence, Rate 500 g/ha, visual evaluation after 12 to 14 days

In the case of `CC1(c2ccn(C3SCN(c4cccc(OC(F)(F)F)c4)C3=O)n2)CC1` (stereo not drawn) [Compound 63], the “Plant response rating, Nightshade” value (Nightshade; Rate 62 g/ha) is reported as 30, the “Plant response rating, Nightshade” value (Nightshade; Rate 125 g/ha) is reported as 60 and the “Plant response rating, Nightshade” value (Nightshade; Rate 250 g/ha) is reported as 60. The “Plant response rating, Surinam grass” value ([1]; Rate 62 g/ha) was 20, the “Plant response rating (0 to 100), Surinam grass” value ([1]; preemergence, Rate 250 g/ha) was 70 and the “Plant response rating (0 to 100), Surinam grass” value ([1]; preemergence, Rate 500 g/ha) was 100. For the same compound, the “Plant response rating, Surinam grass” value ([1]; preemergence, Rate 125 g/ha) was 20, the “Plant response rating, Bermudagrass” value ([2]; Rate 62 g/ha) was 100 and the “Plant response rating (0 to 100 where 0 is no effect and 100 is complete control), Bermudagrass” value ([2]; preemergence, Rate 250 g/ha) was 100. For the same compound, the “Plant response rating (0 to 100 where 0 is no effect and 100 is complete control), Bermudagrass” value ([2]; preemergence, Rate 500 g/ha) was 100, the “Plant response rating, Bermudagrass” value ([2]; preemergence, Rate 125 g/ha) was 100 and the “Plant response rating, Cocklebur” value ([3]; Rate 62 g/ha) was 0. For the same compound, the “Plant response rating (0 to 100), Cocklebur” value ([3]; preemergence, Rate 250 g/ha) was 30, the “Plant response rating (0 to 100), Cocklebur” value ([3]; preemergence, Rate 500 g/ha) was 30 and the “Plant response rating, Cocklebur” value ([3]; preemergence, Rate 125 g/ha) was 0. The “Plant response rating (0 to 100), Ragweed, Common” value [4, 15] was 90, the “Plant response rating, Ragweed, Common” value ([4]; Rate 125 g/ha) was 50 and the “Plant response rating, Ragweed, Common” value ([4]; Rate 250 g/ha) was 50. For the same compound, the “Plant response rating, Corn” value (corn (Zea mays); Rate 62 g/ha) was 0, the “Plant response rating (0 to 100), Corn” value (corn (Zea mays); preemergence, Rate 250 g/ha) was 20 and the “Plant response rating (0 to 100), Corn” value (corn (Zea mays); preemergence, Rate 500 g/ha) was 40. The “Plant response rating, Corn” value (corn (Zea mays); preemergence, Rate 125 g/ha) was 0, the “Plant response rating, Crabgrass” value ([5]; Rate 62 g/ha) was 100 and the “Plant response rating (0 to 100), Crabgrass” value ([5]; preemergence, Rate 250 g/ha) was 100. For the same compound, the “Plant response rating (0 to 100), Crabgrass” value ([5]; preemergence, Rate 500 g/ha) was 100, the “Plant response rating, Crabgrass” value ([5]; preemergence, Rate 125 g/ha) was 100 and the “Plant response rating, Foxtail, Giant” value ([6]; Rate 62 g/ha) was 20. The “Plant response rating (0 to 100), Foxtail, Giant” value ([6]; preemergence, Rate 250 g/ha) was 100, the “Plant response rating (0 to 100), Foxtail, Giant” value ([6]; preemergence, Rate 500 g/ha) was 100 and the “Plant response rating, Foxtail, Giant” value ([6]; preemergence, Rate 125 g/ha) was 90. For the same compound, the “Plant response rating, Goosegrass” value ([7]; Rate 62 g/ha) was 100, the “Plant response rating (0 to 100), Goosegrass” value ([7]; preemergence, Rate 250 g/ha) was 100 and the “Plant response rating (0 to 100), Goosegrass” value ([7]; preemergence, Rate 500 g/ha) was 100. For the same compound, the “Plant response rating, Goosegrass” value ([7]; preemergence, Rate 125 g/ha) was 100, the “Plant response rating, Johnsongrass” value ([8]; Rate 62 g/ha) was 0 and the “Plant response rating (0 to 100), Johnsongrass” value ([8]; preemergence, Rate 250 g/ha) was 100. The “Plant response rating (0 to 100), Johnsongrass” value ([8]; preemergence, Rate 500 g/ha) was 100, the “Plant response rating, Johnsongrass” value ([8]; preemergence, Rate 125 g/ha) was 60 and the “Plant response rating, Kochia” value (kochia (Kochia scoparia); Rate 62 g/ha) was 70. The “Plant response rating (0 to 100), Kochia” value (kochia (Kochia scoparia); preemergence, Rate 250 g/ha) was 100, the “Plant response rating (0 to 100), Kochia” value (kochia (Kochia scoparia); preemergence, Rate 500 g/ha) was 100 and the “Plant response rating, Kochia” value (kochia (Kochia scoparia); preemergence, Rate 125 g/ha) was 100. For the same compound, the “Plant response rating, Morningglory” value ([9]; Rate 62 g/ha) was 0, the “Plant response rating (0 to 100), Morningglory” value [9, 16] was 40 and the “Plant response rating, Morningglory” value ([9]; preemergence, Rate 125 g/ha) was 20. The “Plant response rating, Morningglory” value ([9]; preemergence, Rate 250 g/ha) was 30, the “Plant response rating (0 to 100), Pigweed” value [10, 15] was 100 and the “Plant response rating, Pigweed” value ([10]; Rate 125 g/ha) was 100. For the same compound, the “Plant response rating, Pigweed” value ([10]; Rate 250 g/ha) was 100, the “Plant response rating (0 to 100), Soybean” value (soybean (Glycine max); [15]) was 40 and the “Plant response rating, Soybean” value (soybean (Glycine max); Rate 125 g/ha) was 0. For the same compound, the “Plant response rating, Soybean” value (soybean (Glycine max); Rate 250 g/ha) was 0, the “Plant response rating (0 to 100), Velvetleaf” value [11, 15] was 50 and the “Plant response rating, Velvetleaf” value ([11]; Rate 125 g/ha) was 0. The “Plant response rating, Velvetleaf” value ([11]; Rate 250 g/ha) was 30, the “Plant response rating, Cupgrass, Woolly” value ([12]; Rate 62 g/ha) was 20 and the “Plant response rating (0 to 100), Cupgrass, Woolly” value ([12]; preemergence, Rate 250 g/ha) was 60. The “Plant response rating (0 to 100), Cupgrass, Woolly” value ([12]; preemergence, Rate 500 g/ha) was 100, the “Plant response rating, Cupgrass, Woolly” value ([12]; preemergence, Rate 125 g/ha) was 60 and the “Plant response rating, Nutsedge” value ([13]; Rate 62 g/ha) was 0. The “Plant response rating (0 to 100), Nutsedge” value [13, 16] was 100, the “Plant response rating, Nutsedge” value ([13]; preemergence, Rate 125 g/ha) was 0 and the “Plant response rating, Nutsedge” value ([13]; preemergence, Rate 250 g/ha) was 20. The “Barnyardgrass plant response rating” value ([14]; Rate 250 g/ha) was 70, the “Barnyardgrass plant response rating” value ([14]; Rate 500 g/ha) was 100 and the “Plant response rating, Barnyardgrass” value ([14]; Rate 62 g/ha) was 20. For the same compound, the “Plant response rating, Barnyardgrass” value ([14]; Rate 125 g/ha) was 40, the “Rice plant response rating” value (rice (Oryza saliva); Rate 250 g/ha) was 40 and the “Rice plant response rating” value (rice (Oryza saliva); Rate 500 g/ha) was 40. The “Plant response rating, Rice” value (rice (Oryza saliva); Rate 62 g/ha) was 0, the “Plant response rating, Rice” value (rice (Oryza saliva); Rate 125 g/ha) was 20 and the “Plant response rating (0 to 100), Sunflower” value (Sunflower) was 60.
